Data published in PubChem BioAssay AID266 (DTP/NCI, 2004).
Where “and” joins values, the source holds several entries; their conditions need not be identical. Identical values can stand only once. Records with an inconclusive call do not appear.

Tested on: Nude mice, LX-1 lung xenograft intrarenal, tumor weight T/C
Assay: NCI In Vivo Anticancer Drug Screen. Data for tumor model Human Lung LX-1 Xenograft (intrarenal inoculation) in NU/NU BALB/C (nude) mice
Conditions: endpoint: mean tumor weight change, higher = larger tumour
Experimental: The antitumor activity of compounds was measured in mice bearing transplantable tumors. Survival or tumor size were measured and the results are expressed as the measurement made in the treated group (T) divided by the measurement made in the vehicle treated control group (C). The tumor model used in this assay is Human Lung LX-1 Xenograft (intrarenal inoculation) in NU/NU BALB/C (nude) mice

[1] = dose: 100.0 mg/kg/injection, schedule: Q04DX003 (sc), vehicle: Klucel (hydroxypropylcellulose) (HPC)

What does the source list for `O=C(O)[C@H](Cc1ccccc1)N1C(=O)c2ccccc2C1=O`?
T/C (dose: 150.0 mg/kg/injection, schedule: Q04DX003 (ip), vehicle: DMSO): 98 % of control; T/C (dose: 300.0 mg/kg/injection, schedule: Q04DX003 (ip), vehicle: DMSO): 58 % of control; T/C (dose: 600.0 mg/kg/injection, schedule: Q04DX003 (ip), vehicle: DMSO): 53 % of control

What does the source list for `CN(C)N=Nc1ccc(S(N)(=O)=O)cc1`?
T/C (dose: 100.0 mg/kg/injection, schedule: Q01DX010 (sc), vehicle: Klucel (hydroxypropylcellulose) (HPC)): -13 % of control; T/C [1]: 38 % of control and 61 % of control; T/C (dose: 200.0 mg/kg/injection, schedule: Q01DX010 (sc), vehicle: Klucel (hydroxypropylcellulose) (HPC)): -72 % of control; T/C (dose: 200.0 mg/kg/injection, schedule: Q04DX003 (sc), vehicle: Klucel (hydroxypropylcellulose) (HPC)): 3 % of control and 11 % of control; T/C (dose: 400.0 mg/kg/injection, schedule: Q01DX010 (sc), vehicle: Klucel (hydroxypropylcellulose) (HPC)): -100 % of control

How did the T/C (dose: 150.0 mg/kg/injection, schedule: Q04DX003 (ip), vehicle: water) turn out when `[Na+]` was run?
The T/C was 68 % of control.

What about the T/C (dose: 600.0 mg/kg/injection, schedule: Q04DX003 (ip), vehicle: water) of the same compound?
Its T/C is 82 % of control.

What about the T/C (dose: 1200.0 mg/kg/injection, schedule: Q04DX003 (ip), vehicle: water) of the same compound?
Its T/C is 79 % of control.

Which results are given for `O=NN(CCCl)C(=O)NC1CCCCC1`?
T/C (dose: 12.5 mg/kg/injection, schedule: Q04DX003 (sc), vehicle: Klucel (hydroxypropylcellulose) (HPC)): 47 % of control; T/C (dose: 25.0 mg/kg/injection, schedule: Q04DX003 (sc), vehicle: Klucel (hydroxypropylcellulose) (HPC)): 29 % of control; T/C (dose: 26.66 mg/kg/injection, schedule: Q04DX003 (sc), vehicle: saline with Tween-80): 4 % of control; T/C (dose: 50.0 mg/kg/injection, schedule: Q04DX003 (sc), vehicle: Klucel (hydroxypropylcellulose) (HPC)): -25 % of control; T/C (dose: 53.33 mg/kg/injection, schedule: Q04DX003 (sc), vehicle: saline with Tween-80): -73 % of control; T/C [1]: 4 % of control

`O=CNCO` was tested. Which T/C (dose: 250.0 mg/kg/injection, schedule: Q01DX010 (sc), vehicle: water) did it give?
Its T/C is 72 % of control.

And the T/C (dose: 500.0 mg/kg/injection, schedule: Q01DX010 (sc), vehicle: water)?
The T/C was 87 % of control.

And the T/C (dose: 1000.0 mg/kg/injection, schedule: Q01DX010 (sc), vehicle: water)?
Its T/C is 100 % of control.

And the T/C (dose: 2000.0 mg/kg/injection, schedule: Q01DX010 (sc), vehicle: water)?
The T/C was 80 % of control.

How did the T/C (dose: 155.52 mg/kg/injection, schedule: Q04DX003 (ip), vehicle: Klucel (hydroxypropylcellulose) (HPC)) turn out when `COC(=O)c1ccc(N=NN(C)COC(C)=O)cc1` was run?
The T/C was 78 % of control.

What about the T/C (dose: 259.2 mg/kg/injection, schedule: Q04DX003 (ip), vehicle: Klucel (hydroxypropylcellulose) (HPC)) of the same compound?
Its T/C is 47 % of control.

What about the T/C (dose: 432.0 mg/kg/injection, schedule: Q04DX003 (ip), vehicle: Klucel (hydroxypropylcellulose) (HPC)) of the same compound?
Its T/C is 60 % of control.

What about the T/C (dose: 720.0 mg/kg/injection, schedule: Q04DX003 (ip), vehicle: Klucel (hydroxypropylcellulose) (HPC)) of the same compound?
Its T/C is 64 % of control.

With `O=NN(CCCl)C(=O)NC1CCC(=O)NC1=O` (centres undefined) as the compound, how does the T/C (dose: 1.56 mg/kg/injection, schedule: Q01DX010 (sc), vehicle: saline with Tween-80) read?
Its T/C is 25 % of control.

And the T/C (dose: 3.13 mg/kg/injection, schedule: Q01DX010 (sc), vehicle: saline with Tween-80)?
The T/C was 12 % of control.

What about the T/C (dose: 5.2 mg/kg/injection, schedule: Q04DX003 (sc), vehicle: saline with Tween-80) of the same compound?
Its T/C is 58 % of control.

What about the T/C (dose: 6.25 mg/kg/injection, schedule: Q01DX010 (sc), vehicle: saline with Tween-80) of the same compound?
The T/C was 1 % of control.

What about the T/C (dose: 10.4 mg/kg/injection, schedule: Q04DX003 (sc), vehicle: saline with Tween-80) of the same compound?
Its T/C is 3 % of control.

What about the T/C (dose: 12.5 mg/kg/injection, schedule: Q01DX010 (sc), vehicle: saline with Tween-80) of the same compound?
Its T/C is -100 % of control.

And the T/C (dose: 20.8 mg/kg/injection, schedule: Q04DX003 (sc), vehicle: saline with Tween-80)?
The T/C was -47 % of control.

`CN(Cc1cnc2nc(N)nc(N)c2n1)c1ccc(C(=O)N[C@@H](CCC(=O)O)C(=O)O)cc1` was tested. Which T/C (dose: 1.0 mg/kg/injection, schedule: Q01DX010 (sc), vehicle: sodium bicarbonate) did it give?
Its T/C is 72 % of control and 84 % of control.

What about the T/C (dose: 4.0 mg/kg/injection, schedule: Q01DX010 (sc), vehicle: sodium bicarbonate) of the same compound?
The T/C was 47 % of control.

`CCC1OC(OC)C=CC1=O` (centres undefined) was tested. Which T/C (dose: 37.5 mg/kg/injection, schedule: Q04DX003 (sc), vehicle: saline) did it give?
Its T/C is 90 % of control.

And the T/C (dose: 75.0 mg/kg/injection, schedule: Q04DX003 (sc), vehicle: saline)?
Its T/C is 99 % of control.

Which T/C (dose: 50.0 mg/kg/injection, schedule: Q01DX010 (sc), vehicle: saline with Tween-80) does the source give for `COc1ccc(S(=O)(=O)N/N=C/C(=O)O)cc1` here?
The T/C was 210 % of control.

And the T/C (dose: 100.0 mg/kg/injection, schedule: Q01DX010 (sc), vehicle: saline with Tween-80)?
The T/C was 119 % of control.

What about the T/C (dose: 200.0 mg/kg/injection, schedule: Q01DX010 (sc), vehicle: saline with Tween-80) of the same compound?
Its T/C is 72 % of control.
